Consider 82 compounds from the Kinase Knowledgebase extract (Sharma et al. 2016).

This assay concerns the target EGFR (UniProt P00533).

pIC50: −log10 of the molar value.

Chain of EGFR (P00533 whole entry, looked up): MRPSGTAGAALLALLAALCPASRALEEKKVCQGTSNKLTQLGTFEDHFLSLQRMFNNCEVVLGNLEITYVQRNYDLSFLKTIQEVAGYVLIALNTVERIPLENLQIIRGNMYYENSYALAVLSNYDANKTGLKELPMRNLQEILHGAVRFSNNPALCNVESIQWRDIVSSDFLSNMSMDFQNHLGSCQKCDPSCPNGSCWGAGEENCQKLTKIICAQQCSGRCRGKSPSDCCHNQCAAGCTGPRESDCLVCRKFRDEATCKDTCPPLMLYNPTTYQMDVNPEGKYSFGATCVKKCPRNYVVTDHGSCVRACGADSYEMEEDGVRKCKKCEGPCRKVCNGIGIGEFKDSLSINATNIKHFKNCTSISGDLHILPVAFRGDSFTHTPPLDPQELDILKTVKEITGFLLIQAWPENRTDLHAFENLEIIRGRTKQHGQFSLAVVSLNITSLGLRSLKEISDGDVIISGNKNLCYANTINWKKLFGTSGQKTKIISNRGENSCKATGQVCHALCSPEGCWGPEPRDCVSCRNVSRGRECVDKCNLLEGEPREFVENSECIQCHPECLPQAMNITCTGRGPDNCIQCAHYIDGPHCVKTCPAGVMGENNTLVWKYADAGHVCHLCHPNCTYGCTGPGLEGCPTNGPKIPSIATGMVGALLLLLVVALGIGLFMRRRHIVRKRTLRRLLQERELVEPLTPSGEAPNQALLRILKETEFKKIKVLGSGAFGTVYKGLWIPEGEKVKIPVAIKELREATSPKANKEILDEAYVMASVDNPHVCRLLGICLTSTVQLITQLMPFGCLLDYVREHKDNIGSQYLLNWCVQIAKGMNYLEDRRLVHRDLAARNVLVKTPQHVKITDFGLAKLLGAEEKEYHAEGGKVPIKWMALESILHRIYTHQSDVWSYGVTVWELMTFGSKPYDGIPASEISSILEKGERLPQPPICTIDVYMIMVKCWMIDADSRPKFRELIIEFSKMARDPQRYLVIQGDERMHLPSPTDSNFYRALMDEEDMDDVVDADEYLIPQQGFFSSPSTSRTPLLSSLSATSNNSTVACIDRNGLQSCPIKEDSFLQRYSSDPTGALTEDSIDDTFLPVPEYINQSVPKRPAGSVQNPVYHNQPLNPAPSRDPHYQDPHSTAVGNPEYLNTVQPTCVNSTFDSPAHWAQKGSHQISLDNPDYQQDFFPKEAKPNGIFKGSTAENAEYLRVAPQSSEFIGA

Take `COCCN1CCCOC(COc2cc3ncnc(Nc4ccc(Cl)c(Cl)c4)c3cc2OC)C1` (configuration not stated): the pIC50 (as a rule, the negative decadic logarithm of the IC50, by convention in mol/L) was more than 7.30.

For the compound `COc1cc2c(Nc3ccc(Cl)c(Cl)c3F)ncnc2cc1OC[C@@H]1CN(C)CC(=O)N1C`, the pIC50 is more than 7.30.

For the compound `COc1cc2c(Nc3ccc(Cl)c(Cl)c3)ncnc2cc1OCC1CN(C2CCC2)CCO1` (configuration not stated), the negative logarithm of the IC50 (pIC50) was more than 7.30.

`COc1cc2c(Nc3ccc(F)c(Cl)c3F)ncnc2cc1O[C@H]1CO[C@H]2[C@@H]1OC[C@@H]2OC` had a pIC50 of more than 7.30.

In turn, `COc1cc2c(Nc3ccc(Br)c(Cl)c3Cl)ncnc2cc1O[C@@H]1CO[C@@H]2[C@H]1OC[C@H]2F` showed a negative-log IC50 (pIC50) of more than 7.30.

`COc1cc2c(Nc3cc(Br)cc(C(F)(F)F)c3)ncnc2cc1O[C@@H]1CO[C@@H]2[C@H]1OC[C@H]2F`: the negative-log IC50 (pIC50) is more than 7.30.

For `COc1cc2c(Nc3ccc(Br)c(Cl)c3)ncnc2cc1O[C@H]1COC[C@H]1OC`, the pIC50 is more than 7.30.

The compound `CCCCCCN1CCOC(COc2cc3ncnc(Nc4ccc(Cl)c(Cl)c4)c3cc2OC)C1` (configuration not stated) gave a pIC50 of more than 7.30.

In the case of `COc1cc2c(Nc3cc(Cl)c(Br)cc3F)ncnc2cc1OC[C@H]1CN2CCOC[C@H]2CO1`, the negative logarithm of the IC50 (pIC50) was more than 7.30.

Regarding `COc1cc2c(Nc3ccc(Cl)c(Cl)c3)ncnc2cc1OCCC1OCCCO1`, the pIC50 is more than 7.30.

`COc1cc2c(Nc3cc(Cl)c(Br)cc3F)ncnc2cc1OC[C@@H]1CN2CCC[C@H]2CO1` gave a pIC50 of more than 7.30.

Compound `COc1cc2c(Nc3ccc(Br)c(Cl)c3Cl)ncnc2cc1OCC1CN(C)CCO1` (configuration not stated) gave a pIC50 of more than 7.30.

`COc1cc2c(Nc3ccc(Cl)c(Cl)c3)ncnc2cc1OCc1nc(CS(=O)(=O)c2ccccn2)no1` gave a pIC50 of more than 7.30.

Compound `COc1cc2c(Nc3ccc(Br)c(Cl)c3)ncnc2cc1O[C@H]1CO[C@@H]2[C@H]1OC[C@@H]2SC` gave a negative logarithm of the IC50 (pIC50) of more than 7.30.

As to `COc1cc2c(Nc3ccc(Cl)c(Cl)c3)ncnc2cc1OCC1CN(C(=NC#N)N2CCN(C)CC2)CCO1` (configuration not stated), the negative logarithm of the IC50 (pIC50) was more than 7.30.

`COc1cc2c(Nc3ccc(Cl)c(Cl)c3)ncnc2cc1OCCC1OCCO1` gave a pIC50 of more than 7.30.

As to `COc1cc2c(Nc3ccc(Cl)c(Cl)c3)ncnc2cc1OCc1noc(-c2c(C)noc2C)n1`, the pIC50 is more than 7.30.

Compound `COCCOc1cc2c(Nc3ccc(Cl)c(Cl)c3)ncnc2cc1OCC1CN(C)CCO1` (configuration not stated) showed a negative-log IC50 (pIC50) of more than 7.30.

In turn, `CCN1CCC(c2nc(COc3cc4ncnc(Nc5ccc(Cl)c(Cl)c5)c4cc3OC)cs2)CC1` had a pIC50 of more than 7.30.

Take `COc1cc2c(Nc3ccc(Cl)c(Cl)c3)ncnc2cc1OC[C@@H]1CN2CCC[C@H]2CO1`: the pIC50 was more than 7.30.

`COc1cc2c(Nc3ccc(Cl)c(Cl)c3)ncnc2cc1OCC1CN(CCF)CCO1` (configuration not stated) showed a negative logarithm of the IC50 (pIC50) of more than 7.30.

As to `COc1cc2c(Nc3ccc(F)c(Cl)c3F)ncnc2cc1OCC1CN(C)CCO1` (configuration not stated), the pIC50 was more than 7.30.

In the case of `COc1cc2c(Nc3ccc(Br)c(C)c3)ncnc2cc1OCC1CN(C)CCO1` (configuration not stated), the pIC50 is more than 7.30.

On to `COc1cc2c(Nc3ccc(Cl)c(Cl)c3)ncnc2cc1OCC1CN(CC(N)=O)CCO1` (configuration not stated), for which the pIC50 was more than 7.30.

On to `COc1cc2c(Nc3cc(Cl)c(Br)cc3F)ncnc2cc1OC[C@H]1C[C@@H]2CN(C)C[C@@H]2C1`, for which the pIC50 is more than 7.30.

Compound `COc1cc2c(Nc3cc(Cl)c(Cl)cc3F)ncnc2cc1O[C@@H]1CO[C@@H]2[C@H]1OC[C@H]2F` had a pIC50 of more than 7.30.

The compound `COc1cc2c(Nc3ccc(Cl)c(Cl)c3)ncnc2cc1OCc1csc2ccc(Cl)cc12` gave a pIC50 of 6.00 to 7.30.

`COc1cc2c(Nc3ccc(F)cc3)ncnc2cc1O[C@@H]1CO[C@@H]2[C@H]1OC[C@H]2F` had a pIC50 of more than 7.30.

In turn, `COc1cc2c(Nc3ccc(Cl)c(Cl)c3)ncnc2cc1OCCC1CN(C(=O)OC(C)(C)C)C(C)(C)CO1` (configuration not stated) had a pIC50 of more than 7.30.

For the compound `CNC(=NC#N)N1CCOC(COc2cc3ncnc(Nc4ccc(Cl)c(Cl)c4)c3cc2OC)C1` (configuration not stated), the negative-log IC50 (pIC50) is more than 7.30.

The compound `COc1cc2c(Nc3ccc(Br)c(Cl)c3F)ncnc2cc1OC[C@@H]1CN2CCC[C@H]2C(=O)N1` gave a negative logarithm of the IC50 (pIC50) of more than 7.30.

With `COc1cc2c(Nc3ccc(Cl)c(Cl)c3)ncnc2cc1OCc1nc(-c2ccncc2)cs1`, the pIC50 is more than 7.30.

In the case of `COc1cc2c(Nc3ccc(Cl)c(Cl)c3)ncnc2cc1OCC1CN(CC=C(C)C)CCO1` (configuration not stated), the negative logarithm of the IC50 (pIC50) was more than 7.30.

Regarding `COc1cc2c(Nc3ccc(F)cc3Br)ncnc2cc1O[C@@H]1CO[C@@H]2[C@H]1OC[C@H]2F`, the pIC50 was more than 7.30.

Consider `COc1cc2c(Nc3ccc(Cl)c(Cl)c3)ncnc2cc1OCc1noc(C2CCCN2)n1` (configuration not stated), for which the negative-log IC50 (pIC50) is more than 7.30.

`COc1cc2c(Nc3cc(Cl)c(Br)cc3F)ncnc2cc1O[C@H]1CO[C@H]2[C@@H]1OC[C@@H]2OC`: the negative logarithm of the IC50 (pIC50) was more than 7.30.

`CCN1CCN(CC)C(COc2cc3ncnc(Nc4ccc(Cl)c(Cl)c4)c3cc2OC)C1` (configuration not stated) gave a negative-log IC50 (pIC50) of more than 7.30.

As for `COc1cc2c(Nc3ccc(Br)c(Cl)c3)ncnc2cc1O[C@H]1CO[C@@H]2[C@H]1OC[C@@H]2N1CCCC1`, the negative-log IC50 (pIC50) was more than 7.30.

On to `COC[C@@]1(OC)CO[C@@H]2[C@H]1OC[C@H]2Oc1cc2ncnc(Nc3ccc(Br)c(Cl)c3)c2cc1OC`, for which the pIC50 was more than 7.30.

As to `COc1cc2c(Nc3ccc(Cl)c(Cl)c3)ncnc2cc1OCC1CN(CCC2OCCO2)CCO1` (configuration not stated), the pIC50 is more than 7.30.

The compound `CCCCN1CCOC(COc2cc3ncnc(Nc4ccc(Cl)c(Cl)c4)c3cc2OC)C1` (configuration not stated) showed a pIC50 of more than 7.30.

Turning to `COc1cc2c(Nc3ccc(Cl)c(Cl)c3)ncnc2cc1OCc1noc(-c2ccccc2OC)n1`, the pIC50 was more than 7.30.

Compound `COc1cc2c(Nc3ccc(Br)c(Cl)c3F)ncnc2cc1OC[C@@H]1CN2CCC[C@H]2CO1` gave a negative logarithm of the IC50 (pIC50) of more than 7.30.

In turn, `COc1cc2c(Nc3ccc(Cl)c(Cl)c3)ncnc2cc1OCC1CN(C(=O)c2c(C)noc2C)CCO1` (configuration not stated) gave a pIC50 of more than 7.30.

The compound `COc1cc2c(Nc3ccc(F)c(Cl)c3F)ncnc2cc1OC[C@H]1CN2CCOC[C@H]2CO1` gave a pIC50 of more than 7.30.

`COc1cc2c(Nc3ccc(Cl)c(Cl)c3)ncnc2cc1OCc1csc(C2CCCCN2)n1` (configuration not stated): the pIC50 is more than 7.30.

The compound `COc1cc2c(Nc3ccc(Br)c(Cl)c3)ncnc2cc1O[C@H]1CO[C@H]2[C@@H]1OC[C@]2(O)C(F)(F)F` gave a negative logarithm of the IC50 (pIC50) of more than 7.30.

In turn, `COc1cc2c(Nc3ccc(F)c(Cl)c3F)ncnc2cc1OCC1CN(C)C(C)(C)CO1` (configuration not stated) had a pIC50 of more than 7.30.

Compound `COc1cc2c(Nc3ccc(Cl)c(Br)c3)ncnc2cc1OCC1CN(C)CCO1` (configuration not stated) had a negative-log IC50 (pIC50) of more than 7.30.

For the compound `COc1cc2c(Nc3ccc(Cl)c(Cl)c3)ncnc2cc1OCC1CN(CC2CCCCO2)CCO1` (configuration not stated), the pIC50 is more than 7.30.

Consider `COc1cc2c(Nc3ccc(Br)cc3C)ncnc2cc1OCC1CN(C)CCO1` (configuration not stated), for which the negative-log IC50 (pIC50) is more than 7.30.

In the case of `COc1cc2c(Nc3ccc(Br)c(Cl)c3)ncnc2cc1O[C@H]1CO[C@@H]2[C@H]1OC[C@@H]2N1CCCCC1`, the pIC50 was more than 7.30.

The compound `COc1cc2c(Nc3ccc(Cl)c(Cl)c3)ncnc2cc1OCC1CN(C(=O)c2cccnc2Cl)CCO1` (configuration not stated) had a negative logarithm of the IC50 (pIC50) of more than 7.30.

Compound `COc1cc2c(Nc3ccc(Cl)c(Cl)c3)ncnc2cc1OCC1CN(C(N)=NC#N)CCO1` (configuration not stated) had a pIC50 of more than 7.30.

The compound `COc1cc2c(Nc3ccc(Cl)c(Cl)c3)ncnc2cc1OCC1CN(C2CCOCC2)CCO1` (configuration not stated) gave a pIC50 of more than 7.30.

`COc1cc2c(Nc3ccc(C)c(Cl)c3Cl)ncnc2cc1OCC1CN(C)CCO1` (configuration not stated) had a pIC50 of more than 7.30.

As for `COc1cc2c(Nc3ccc(Cl)c(Cl)c3)ncnc2cc1OC1CO[C@@H]2[C@@H](OC)CO[C@H]12` (some centres not stated), the pIC50 was more than 7.30.

Consider `COc1cc2c(Nc3ccc(Cl)c(Cl)c3)ncnc2cc1OCC1CN(C(C)C)CCCO1` (configuration not stated), for which the negative-log IC50 (pIC50) is more than 7.30.

In the case of `COc1cc2c(Nc3ccc(Cl)c(Cl)c3)ncnc2cc1OCC1CC1`, the negative logarithm of the IC50 (pIC50) was more than 7.30.

Take `COc1cc2c(Nc3ccc(Cl)c(Cl)c3)ncnc2cc1OCC1CN(C(=O)C(C)(C)C)CCO1` (configuration not stated): the pIC50 was more than 7.30.

In turn, `COc1cc2c(Nc3ccc(Cl)c(Cl)c3)ncnc2cc1OCc1csc(COC(=O)c2ccccc2)n1` had a negative-log IC50 (pIC50) of more than 7.30.

The compound `COc1cc2c(Nc3ccc(Cl)c(Cl)c3)ncnc2cc1OCc1nc(CN2CCOCC2)cs1` showed a negative logarithm of the IC50 (pIC50) of more than 7.30.

On to `COc1cc2c(Nc3ccc(Br)cc3)ncnc2cc1O[C@@H]1CO[C@@H]2[C@H]1OC[C@H]2F`, for which the pIC50 is more than 7.30.

Compound `CCCN1CCCOC(COc2cc3ncnc(Nc4ccc(Cl)c(Cl)c4)c3cc2OC)C1` (configuration not stated) showed a negative-log IC50 (pIC50) of 6.00 to 7.30.

Compound `COc1cc2c(Nc3ccc(Br)c(Cl)c3C)ncnc2cc1OCC1CN(C)CCO1` (configuration not stated) showed a pIC50 of more than 7.30.

In the case of `COc1cc2c(Nc3ccc(Cl)c(Cl)c3)ncnc2cc1OCC1CN(CCC2CCCCC2)CCO1` (configuration not stated), the pIC50 is more than 7.30.

For the compound `COc1cc2c(Nc3ccc(F)c(Cl)c3F)ncnc2cc1OC[C@@H]1CN2CCOC[C@H]2CO1`, the pIC50 was more than 7.30.

`CCC#CCN1CCOC(COc2cc3ncnc(Nc4ccc(Cl)c(Cl)c4)c3cc2OC)C1` (configuration not stated) gave a pIC50 of more than 7.30.

Consider `COc1cc2c(Nc3cc(Cl)c(Cl)c(Cl)c3)ncnc2cc1O[C@@H]1CO[C@@H]2[C@H]1OC[C@H]2F`, for which the pIC50 was more than 7.30.

As for `COc1cccc(CC(=O)N2CCOC(COc3cc4ncnc(Nc5ccc(Cl)c(Cl)c5)c4cc3OC)C2)c1` (configuration not stated), the negative-log IC50 (pIC50) was more than 7.30.

`COc1cc2c(Nc3ccc(Cl)c(Cl)c3)ncnc2cc1OCC1CN(C(=O)c2ccc(Cl)nc2)CCO1` (configuration not stated) had a negative logarithm of the IC50 (pIC50) of more than 7.30.

`COc1cc2c(Nc3cc(Cl)ccc3Cl)ncnc2cc1O[C@@H]1CO[C@@H]2[C@H]1OC[C@H]2F`: the negative-log IC50 (pIC50) was more than 7.30.

Compound `CCOC(=O)C(C)N1CCOC(COc2cc3ncnc(Nc4ccc(Cl)c(Cl)c4)c3cc2OC)C1` (configuration not stated) had a negative-log IC50 (pIC50) of more than 7.30.

`COc1cc2c(Nc3ccc(Cl)c(Cl)c3)ncnc2cc1OCC1CN(CC2CCCCC2)CCCO1` (configuration not stated): the pIC50 was more than 7.30.

Turning to `COc1cc2c(Nc3ccc(Br)c(Cl)c3)ncnc2cc1O[C@@H]1CCOC1`, the pIC50 is more than 7.30.

`COc1cc2c(Nc3ccc(Br)c(F)c3F)ncnc2cc1OCC1CN(C)CCO1` (configuration not stated) had a pIC50 of more than 7.30.

`COc1cc2c(Nc3ccc(Cl)c(Cl)c3)ncnc2cc1OCC1CN(C(=O)c2cccc3ccccc23)CCO1` (configuration not stated) showed a pIC50 of more than 7.30.

Regarding `CCN1CCC(c2nc(COc3cc4ncnc(Nc5ccc(Cl)c(Cl)c5)c4cc3OC)no2)CC1`, the negative logarithm of the IC50 (pIC50) was more than 7.30.

Take `COc1cc2c(Nc3ccc(Cl)c(Cl)c3)ncnc2cc1OCc1csc(C2CCCCN2C)n1` (configuration not stated): the pIC50 was more than 7.30.

The compound `COc1cc2c(Nc3ccc(Cl)c(Cl)c3)ncnc2cc1OCc1noc(C2CCCCN2C(=O)OC(C)(C)C)n1` (configuration not stated) gave a pIC50 of more than 7.30.

Regarding `COc1cc2c(Nc3cc(Cl)c(Cl)cc3F)ncnc2cc1OC[C@H]1C[C@@H]2CN(C)C[C@@H]2C1`, the pIC50 was more than 7.30.

`COc1cc2c(Nc3cc(F)c(Br)c(Cl)c3)ncnc2cc1O[C@@H]1CO[C@@H]2[C@H]1OC[C@H]2F` showed a negative logarithm of the IC50 (pIC50) of more than 7.30.
